{"source": "patent US9216955B2", "about": "“Polymorphic form of Fexofenadine hydrochloride, intermediates and process for its preparation” ([…] S.R.L., priority 2010, dated 2015)", "settings": "solid form", "data": [{"compound": "CC(C)(C(=O)O)c1ccc(C(O)CCCN2CCC(C(O)(c3ccccc3)c3ccccc3)CC2)cc1.Cl", "note": "(centres unmarked) [polymorph φ, 2-[4-[1-hydroxy-4-[4-(hydroxydiphenylmethyl)-1-piperidyl]-butyl]phenyl]-2-methylpropanoic acid]", "values": [{"measurement": "deliquescence", "result": "not deliquescent"}, {"measurement": "hygroscopicity", "result": "not hygroscopic"}]}]}
